Measured values as given in ChEMBL document CHEMBL5579895, “Discovery of TYRA-300: First Oral Selective FGFR3 Inhibitor for the Treatment of Urothelial Cancers and Achondroplasia” (J Med Chem, 2024).
Values after ≈ are worked out from the molar mass of the structure shown.

How the values were obtained:
[1] = target: Vascular endothelial growth factor receptor 3 (Homo sapiens, UniProt P35916); assay: Inhibition of human FLT4 by KINOMEscan analysis
[2] = target: Leukocyte tyrosine kinase receptor (Homo sapiens, UniProt P29376); assay: Inhibition of human LTK by KINOMEscan analysis
[3] = test system: RT112/84; assay: cells; type: functional, cell-based; conditions: Homo sapiens
Description: Inhibition of cell viability in human RT112/84 cells harboring FGFR3 V555M mutant incubated for 72 to 120 hrs by Cell Titer Glo assay

[4] = Volume of distribution in Sprague-Dawley rat at 2 mg/kg, iv measured for 24 hrs by LC-MS/MS analysis; type: ADME, organism-based; conditions: in vivo
[5] = Tmax in monkey at 10 mg/kg, po measured for 24 hrs by LC-MS/MS analysis; type: ADME, organism-based, Macaca mulatta; conditions: rhesus monkey, in vivo
[6] = Oral bioavailability in dog at 10 mg/kg measured for 24 hrs by LC-MS/MS analysis; type: ADME, organism-based, Canis lupus familiaris; conditions: in vivo
[7] = Inhibition of recombinant FGFR3/BAIAP2L1 (unknown origin) transduced in mouse BaF3 cells incubated for 48 hrs by Cell Titer Glo assay; type: cell-based; conditions: BaF3, 48 h
[8] = target: Fibroblast growth factor receptor 3 (Homo sapiens, UniProt P22607, N540K); assay: Inhibition of FGFR3 N540K mutant (unknown origin) by NanoBRET assay
[9] = Cmax in dog at 10 mg/kg, po measured for 24 hrs by LC-MS/MS analysis; type: ADME, organism-based, Canis lupus familiaris; conditions: in vivo
[10] = AUC (last) in monkey at 10 mg/kg, po measured for 24 hrs by LC-MS/MS analysis; type: ADME, organism-based, Macaca mulatta; conditions: rhesus monkey, in vivo
[11] = Half life in monkey at 1 mg/kg, iv measured for 24 hrs by LC-MS/MS analysis; type: ADME, organism-based, Macaca mulatta; conditions: rhesus monkey, in vivo
[12] = target: Tyrosine-protein kinase JAK2 (Homo sapiens, UniProt O60674); assay: Inhibition of human JAK2 by KINOMEscan analysis
[13] = AUC (last) in Sprague-Dawley rat at 10 mg/kg, po measured for 24 hrs by LC-MS/MS analysis; type: ADME, organism-based; conditions: in vivo
[14] = Inhibition of cell viability in human UMUC14 cells harboring FGFR3 S249C mutant incubated for 72 to 120 hrs by Cell Titer Glo assay; type: functional, cell-based
[15] = target: Fibroblast growth factor receptor 3 (Homo sapiens, UniProt P22607, V555M); assay: Inhibition of FGFR3 V555M mutant (unknown origin) by mobility shift assay
[16] = Stability in dog hepatocytes assessed as half life at 1 uM incubated upto 180 mins by LC-MS/MS analysis; type: ADME, cell-based, Canis lupus familiaris, Hepatocyte
[17] = target: Tyrosine-protein kinase JAK3 (Homo sapiens, UniProt P52333); assay: Inhibition of human JAK3 by KINOMEscan analysis
[18] = test system: RT112/84; assay: cells; type: functional, cell-based; conditions: Homo sapiens; remark: listed apart in the source
Description: Inhibition of cell viability in human RT112/84 cells harboring FGFR3/TACC3 fusion incubated for 72 to 120 hrs by Cell Titer Glo assay

[19] = Oral bioavailability in monkey at 10 mg/kg measured for 24 hrs by LC-MS/MS analysis; type: ADME, organism-based, Macaca mulatta; conditions: rhesus monkey, in vivo
[20] = Clearance in monkey at 1 mg/kg, iv measured for 24 hrs by LC-MS/MS analysis; type: ADME, organism-based, Macaca mulatta; conditions: rhesus monkey, in vivo
[21] = AUC (last) in Sprague-Dawley rat at 2 mg/kg, iv measured for 24 hrs by LC-MS/MS analysis; type: ADME, organism-based; conditions: in vivo
[22] = Cmax in monkey at 10 mg/kg, po measured for 24 hrs by LC-MS/MS analysis; type: ADME, organism-based, Macaca mulatta; conditions: rhesus monkey, in vivo
[23] = Half life in dog at 1 mg/kg, iv measured for 24 hrs by LC-MS/MS analysis; type: ADME, organism-based, Canis lupus familiaris; conditions: in vivo
[24] = target: Fibroblast growth factor receptor 3 (Homo sapiens, UniProt P22607, G380R); assay: Inhibition of FGFR3 G380R mutant (unknown origin) by NanoBRET assay
[25] = target: Fibroblast growth factor receptor 2 (Homo sapiens, UniProt P21802); assay: Inhibition of human FGFR2 by KINOMEscan analysis
[26] = Clearance in dog at 1 mg/kg, iv measured for 24 hrs by LC-MS/MS analysis; type: ADME, organism-based, Canis lupus familiaris; conditions: in vivo
[27] = Thermodynamic solubility in FaSSIF; type: ADME; conditions: read-out: Therm_solubility
[28] = AUC (last) in dog at 10 mg/kg, po measured for 24 hrs by LC-MS/MS analysis; type: ADME, organism-based, Canis lupus familiaris; conditions: in vivo
[29] = test system: RT112/84; assay: animal or person; type: functional, Homo sapiens; conditions: Mus musculus, RT112/84, 504 h, route po, time 21 day, read-out: TGI
Description: Antitumor activity against human RT112/84 cells harboring FGFR3/TACC3 fusion xenografted in Balb/c nude mouse model at 12.5 mg/kg, po bid treated for 21 days relative to control

[30] = Half life in Sprague-Dawley rat at 2 mg/kg, iv measured for 24 hrs by LC-MS/MS analysis; type: ADME, organism-based; conditions: in vivo
[31] = Apparent permeability in human Caco-2 cells; type: ADME, cell-based
[32] = test system: DMS-114; assay: Inhibition of cell viability in human DMS-114 cells harboring FGFR1-amplification incubated for 72 to 120 hrs by Cell Titer Glo assay; type: functional, cell-based
[33] = Volume of distribution in monkey at 1 mg/kg, iv measured for 24 hrs by LC-MS/MS analysis; type: ADME, organism-based, Macaca mulatta; conditions: rhesus monkey, in vivo
[34] = test system: RT112/84; assay: animal or person; type: functional, Homo sapiens; conditions: Mus musculus, RT112/84, 504 h, route po, time 21 day, read-out: TGI; remark: listed apart in the source
Description: Antitumor activity against human RT112/84 cells harboring FGFR3 V555M mutant xenografted in Balb/c nude mouse model at 12.5 mg/kg, po bid treated for 21 days relative to control

[35] = Thermodynamic solubility in FaSSGF; type: ADME; conditions: read-out: Therm_solubility
[36] = target: Vascular endothelial growth factor receptor 2 (Homo sapiens, UniProt P35968); assay: Inhibition of human VEGFR2 by KINOMEscan analysis
[37] = Volume of distribution in dog at 1 mg/kg, iv measured for 24 hrs by LC-MS/MS analysis; type: ADME, organism-based, Canis lupus familiaris; conditions: in vivo
[38] = Clearance in Sprague-Dawley rat at 2 mg/kg, iv measured for 24 hrs by LC-MS/MS analysis; type: ADME, organism-based; conditions: in vivo
[39] = target: Fibroblast growth factor receptor 3 (Homo sapiens, UniProt P22607, K650E); assay: Inhibition of FGFR3 K650E mutant (unknown origin) by mobility shift assay
[40] = Stability in human hepatocytes assessed as half life at 1 uM incubated upto 180 mins by LC-MS/MS analysis; type: ADME, cell-based, Hepatocyte
[41] = Cmax in Sprague-Dawley rat at 10 mg/kg, po measured for 24 hrs by LC-MS/MS analysis; type: ADME, organism-based; conditions: in vivo
[42] = target: Voltage-gated inwardly rectifying potassium channel KCNH2 (Homo sapiens, UniProt Q12809); assay: Inhibition of hERG expressed in CHO cells by automated patch-clamp assay; type: toxicity, cell-based
[43] = Inhibition of cell viability in human UMUC14 cells harboring FGFR3 V555M mutant incubated for 72 to 120 hrs by Cell Titer Glo assay; type: functional, cell-based
[44] = Stability in mouse hepatocytes assessed as half life at 1 uM incubated upto 180 mins by LC-MS/MS analysis; type: ADME, cell-based, Hepatocyte
[45] = test system: KG-1; assay: Inhibition of cell viability in human KG-1 cells harboring FGFR1-fusion incubated for 72 to 120 hrs by Cell Titer Glo assay; type: functional, cell-based
[46] = Apparent permeability in MDCK-MDR1 cells; type: ADME, cell-based, Canis lupus familiaris; conditions: dog
[47] = test system: RT-4; assay: Inhibition of cell viability in human RT-4 cells harboring FGFR3/TACC3 fusion incubated for 72 to 120 hrs by Cell Titer Glo assay; type: functional, cell-based
[48] = AUC (last) in monkey at 1 mg/kg, iv measured for 24 hrs by LC-MS/MS analysis; type: ADME, organism-based, Macaca mulatta; conditions: rhesus monkey, in vivo
[49] = Oral bioavailability in Sprague-Dawley rat at 10 mg/kg measured for 24 hrs by LC-MS/MS analysis; type: ADME, organism-based; conditions: in vivo

Chain of Vascular endothelial growth factor receptor 3 (P35916 whole entry): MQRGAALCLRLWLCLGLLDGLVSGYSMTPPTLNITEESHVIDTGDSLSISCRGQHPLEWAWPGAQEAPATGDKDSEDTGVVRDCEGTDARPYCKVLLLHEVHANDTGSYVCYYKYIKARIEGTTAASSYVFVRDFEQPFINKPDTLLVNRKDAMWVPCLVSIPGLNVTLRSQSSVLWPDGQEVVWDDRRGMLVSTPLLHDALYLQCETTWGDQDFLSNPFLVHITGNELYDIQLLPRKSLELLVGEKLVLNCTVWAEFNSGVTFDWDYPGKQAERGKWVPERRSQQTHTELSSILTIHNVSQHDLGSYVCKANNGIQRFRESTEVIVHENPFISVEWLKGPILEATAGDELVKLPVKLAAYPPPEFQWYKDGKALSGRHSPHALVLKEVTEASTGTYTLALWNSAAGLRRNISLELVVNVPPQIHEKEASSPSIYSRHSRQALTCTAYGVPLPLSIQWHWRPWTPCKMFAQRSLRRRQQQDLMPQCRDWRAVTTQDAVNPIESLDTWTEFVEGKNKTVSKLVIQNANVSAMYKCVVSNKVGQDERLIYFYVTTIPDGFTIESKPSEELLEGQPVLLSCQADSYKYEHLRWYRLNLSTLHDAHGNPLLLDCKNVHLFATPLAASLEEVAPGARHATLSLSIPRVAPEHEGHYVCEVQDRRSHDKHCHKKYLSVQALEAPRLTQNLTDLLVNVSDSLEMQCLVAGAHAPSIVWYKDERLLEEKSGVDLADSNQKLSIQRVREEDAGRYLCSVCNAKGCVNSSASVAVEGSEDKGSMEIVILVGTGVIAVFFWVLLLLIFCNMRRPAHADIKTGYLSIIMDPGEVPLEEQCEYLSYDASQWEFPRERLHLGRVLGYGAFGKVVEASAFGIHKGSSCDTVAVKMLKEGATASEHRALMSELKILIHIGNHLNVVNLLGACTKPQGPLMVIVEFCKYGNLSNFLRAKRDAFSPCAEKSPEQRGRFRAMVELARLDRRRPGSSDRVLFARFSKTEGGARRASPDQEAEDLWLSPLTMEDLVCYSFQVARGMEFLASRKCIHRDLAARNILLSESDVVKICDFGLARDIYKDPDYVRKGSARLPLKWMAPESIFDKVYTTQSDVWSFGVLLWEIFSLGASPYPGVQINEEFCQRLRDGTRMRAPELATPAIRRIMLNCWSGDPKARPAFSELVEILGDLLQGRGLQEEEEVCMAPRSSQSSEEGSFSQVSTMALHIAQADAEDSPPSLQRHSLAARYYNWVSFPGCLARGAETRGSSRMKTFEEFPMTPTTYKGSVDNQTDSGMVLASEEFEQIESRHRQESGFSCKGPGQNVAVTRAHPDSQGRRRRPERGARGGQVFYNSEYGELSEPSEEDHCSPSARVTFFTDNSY
Chain of Fibroblast growth factor receptor 3 (Homo sapiens, UniProt P22607, V555M) (P22607 23-806 V555M limits assumed): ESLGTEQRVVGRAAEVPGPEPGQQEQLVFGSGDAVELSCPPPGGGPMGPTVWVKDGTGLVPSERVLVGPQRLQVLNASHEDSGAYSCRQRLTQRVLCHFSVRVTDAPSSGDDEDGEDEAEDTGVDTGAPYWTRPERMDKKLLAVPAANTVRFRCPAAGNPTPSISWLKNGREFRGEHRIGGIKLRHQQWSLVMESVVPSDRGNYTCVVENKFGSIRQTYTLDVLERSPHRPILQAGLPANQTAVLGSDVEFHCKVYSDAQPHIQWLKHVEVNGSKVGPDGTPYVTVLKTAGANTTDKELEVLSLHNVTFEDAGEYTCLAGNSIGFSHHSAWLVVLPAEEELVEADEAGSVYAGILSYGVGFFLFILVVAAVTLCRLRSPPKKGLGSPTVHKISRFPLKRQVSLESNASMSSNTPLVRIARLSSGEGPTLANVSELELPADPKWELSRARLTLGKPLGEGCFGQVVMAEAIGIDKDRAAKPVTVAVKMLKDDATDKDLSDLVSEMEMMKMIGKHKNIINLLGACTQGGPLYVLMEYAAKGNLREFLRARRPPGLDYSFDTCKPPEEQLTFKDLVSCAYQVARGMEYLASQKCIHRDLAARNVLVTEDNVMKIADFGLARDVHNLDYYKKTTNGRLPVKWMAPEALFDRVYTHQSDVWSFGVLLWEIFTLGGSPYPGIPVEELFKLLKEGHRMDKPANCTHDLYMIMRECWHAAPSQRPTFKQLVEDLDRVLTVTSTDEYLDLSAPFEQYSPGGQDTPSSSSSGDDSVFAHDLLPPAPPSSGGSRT
Chain of Leukocyte tyrosine kinase receptor (P29376 whole entry): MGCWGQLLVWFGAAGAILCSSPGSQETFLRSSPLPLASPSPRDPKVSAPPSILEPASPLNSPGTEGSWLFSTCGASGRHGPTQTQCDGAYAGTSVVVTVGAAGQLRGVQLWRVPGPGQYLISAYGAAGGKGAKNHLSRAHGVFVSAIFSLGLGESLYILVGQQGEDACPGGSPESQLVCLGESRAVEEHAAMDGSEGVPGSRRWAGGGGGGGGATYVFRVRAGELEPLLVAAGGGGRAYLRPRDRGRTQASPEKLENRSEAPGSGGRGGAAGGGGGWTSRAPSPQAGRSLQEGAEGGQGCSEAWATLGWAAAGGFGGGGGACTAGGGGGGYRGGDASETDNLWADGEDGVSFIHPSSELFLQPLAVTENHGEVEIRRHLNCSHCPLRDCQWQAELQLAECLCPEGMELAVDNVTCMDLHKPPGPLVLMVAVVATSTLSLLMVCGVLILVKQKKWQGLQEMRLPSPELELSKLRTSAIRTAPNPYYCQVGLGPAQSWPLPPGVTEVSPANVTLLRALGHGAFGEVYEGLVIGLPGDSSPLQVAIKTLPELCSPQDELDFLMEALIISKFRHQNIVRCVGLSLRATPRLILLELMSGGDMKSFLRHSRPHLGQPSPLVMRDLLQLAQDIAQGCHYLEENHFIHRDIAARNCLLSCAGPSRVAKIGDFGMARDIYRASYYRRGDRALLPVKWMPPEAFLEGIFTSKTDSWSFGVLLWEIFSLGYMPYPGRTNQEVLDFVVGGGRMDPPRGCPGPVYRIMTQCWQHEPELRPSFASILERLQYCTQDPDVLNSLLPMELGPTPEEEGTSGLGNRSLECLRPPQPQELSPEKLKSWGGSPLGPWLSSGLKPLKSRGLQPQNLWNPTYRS
Chain of Fibroblast growth factor receptor 2 (P21802 whole entry): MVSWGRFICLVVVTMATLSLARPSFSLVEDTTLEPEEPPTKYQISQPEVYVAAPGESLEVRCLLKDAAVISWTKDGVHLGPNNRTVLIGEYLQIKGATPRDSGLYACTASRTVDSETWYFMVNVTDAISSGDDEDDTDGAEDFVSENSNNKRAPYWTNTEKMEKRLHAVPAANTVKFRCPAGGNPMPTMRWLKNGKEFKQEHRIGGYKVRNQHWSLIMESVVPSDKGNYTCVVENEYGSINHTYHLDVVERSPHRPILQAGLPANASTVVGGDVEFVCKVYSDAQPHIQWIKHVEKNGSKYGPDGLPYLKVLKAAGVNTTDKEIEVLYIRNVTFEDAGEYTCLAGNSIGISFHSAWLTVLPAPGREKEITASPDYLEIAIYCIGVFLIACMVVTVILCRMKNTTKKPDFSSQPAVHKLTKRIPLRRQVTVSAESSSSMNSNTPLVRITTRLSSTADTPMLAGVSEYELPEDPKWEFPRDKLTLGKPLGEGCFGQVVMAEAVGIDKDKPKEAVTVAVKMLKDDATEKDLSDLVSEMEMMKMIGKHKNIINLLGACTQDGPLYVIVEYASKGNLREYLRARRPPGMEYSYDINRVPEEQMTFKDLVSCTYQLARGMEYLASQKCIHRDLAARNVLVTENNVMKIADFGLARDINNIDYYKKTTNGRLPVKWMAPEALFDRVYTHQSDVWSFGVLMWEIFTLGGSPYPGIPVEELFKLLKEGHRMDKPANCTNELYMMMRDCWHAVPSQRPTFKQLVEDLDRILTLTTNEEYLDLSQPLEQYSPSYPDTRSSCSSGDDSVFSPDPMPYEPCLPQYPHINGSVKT
Chain of Tyrosine-protein kinase JAK2 (O60674 whole entry): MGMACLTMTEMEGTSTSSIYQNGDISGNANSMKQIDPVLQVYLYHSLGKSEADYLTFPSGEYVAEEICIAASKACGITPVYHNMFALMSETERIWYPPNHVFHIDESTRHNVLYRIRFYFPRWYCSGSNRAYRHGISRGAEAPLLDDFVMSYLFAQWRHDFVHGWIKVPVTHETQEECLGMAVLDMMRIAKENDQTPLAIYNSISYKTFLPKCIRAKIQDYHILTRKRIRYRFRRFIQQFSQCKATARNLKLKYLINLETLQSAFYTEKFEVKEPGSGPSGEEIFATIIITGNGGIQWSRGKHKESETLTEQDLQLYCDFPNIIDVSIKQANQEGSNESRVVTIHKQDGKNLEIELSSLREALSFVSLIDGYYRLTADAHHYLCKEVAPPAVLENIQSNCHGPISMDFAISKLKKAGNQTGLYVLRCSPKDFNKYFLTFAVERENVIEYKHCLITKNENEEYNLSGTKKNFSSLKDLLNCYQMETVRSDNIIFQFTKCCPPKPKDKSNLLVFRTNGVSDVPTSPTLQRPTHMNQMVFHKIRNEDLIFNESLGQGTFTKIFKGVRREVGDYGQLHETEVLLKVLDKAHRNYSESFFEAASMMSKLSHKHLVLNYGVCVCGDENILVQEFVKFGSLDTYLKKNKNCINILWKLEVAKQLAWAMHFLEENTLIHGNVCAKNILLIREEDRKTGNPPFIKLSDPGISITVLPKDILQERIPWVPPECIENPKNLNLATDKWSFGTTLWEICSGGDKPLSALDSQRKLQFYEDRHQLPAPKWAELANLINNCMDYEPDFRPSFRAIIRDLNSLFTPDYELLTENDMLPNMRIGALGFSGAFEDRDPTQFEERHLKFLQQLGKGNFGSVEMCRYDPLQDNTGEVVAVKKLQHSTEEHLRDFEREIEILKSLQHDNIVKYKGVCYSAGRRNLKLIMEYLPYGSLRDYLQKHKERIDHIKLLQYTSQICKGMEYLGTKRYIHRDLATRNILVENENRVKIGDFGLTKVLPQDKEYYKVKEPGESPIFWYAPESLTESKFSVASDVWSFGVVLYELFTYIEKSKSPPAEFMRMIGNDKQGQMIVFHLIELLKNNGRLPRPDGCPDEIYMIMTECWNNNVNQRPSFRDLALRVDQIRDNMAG

IC50 [1]: 2.1 nM | IC50 [2]: 65 nM | IC50 [3]: 17 nM | Vd [4]: 2.5 L/kg | Tmax [5]: 6 h | bioavailability [6]: 98% | IC50 [8]: 73 nM | Cmax [9]: 3090 ng/mL | AUC(0-t) at 24 h [10]: 15900 ng·h/mL | half-life [11]: 1.17 h | IC50 [12]: 36 nM | AUC(0-t) at 24 h [13]: 3360 ng·h/mL | IC50 [15]: 2 nM | half-life at 1 µM [16]: > 1.67 h | IC50 [17]: 206 nM | IC50 [18]: 9 nM | bioavailability [19]: 106% | clearance [20]: 11.1 mL/min/kg | AUC(0-t) at 24 h [21]: 1730 ng·h/mL | Cmax [22]: 1210 ng/mL | half-life [23]: 5.52 h | IC50 [24]: 21 nM | IC50 [25]: 7 nM | clearance [26]: 2.68 mL/min/kg | solubility thermodynamic [27]: 20 µM (≈ 11.2 µg/mL) | AUC(0-t) at 24 h [28]: 58300 ng·h/mL | half-life [30]: 1.93 h | Papp [31]: 1.1 ×10⁻⁶ cm/s | Vd [33]: 0.94 L/kg | solubility thermodynamic [35]: 34 µM (≈ 19 µg/mL) | IC50 [36]: 325 nM | Vd [37]: 1.12 L/kg | clearance [38]: 17.5 mL/min/kg | IC50 [39]: 2.8 nM | half-life at 1 µM [40]: > 1.67 h | Cmax [41]: 802 ng/mL | half-life at 1 µM [44]: > 1.67 h | Papp [46]: 1 ×10⁻⁶ cm/s | AUC(0-t) at 24 h [48]: 1500 ng·h/mL | bioavailability [49]: 39%
Compound: C[C@@H](Oc1ccc2[nH]nc(-c3ccc(N4CC5(C4)CN(S(C)(=O)=O)C5)nc3)c2c1)c1c(Cl)cncc1Cl
IC50 [7]: 11 nM | IC50 [14]: 16 nM | inhibition in vivo at 12.5 mg/kg [29]: 95% | IC50 [32]: 205 nM | inhibition in vivo at 12.5 mg/kg [34]: 77% | IC50 [42]: 9300 nM | IC50 [43]: 21 nM | IC50 [45]: 109 nM | IC50 [47]: 10 nM
